Test results reported in ChEMBL document CHEMBL3045329, “Synthesis, biological evaluation, and pharmacokinetic profiling of benzophenone derivatives as tumor necrosis factor-alpha and interleukin-6 inhibitors” (Med Chem Res, 2012).

Tests used:
[1] = Cytotoxicity against Homo sapiens (human) […] at 10 uM after 24 hr; assay type: cell-based; details: cck8, 24 h
THP-1 [2] = assay: Anti-inflammatory activity in Homo sapiens (human) PMA-stimulated THP1 cells assessed as inhibition of LPS-induced TNFalpha production at 10 uM incubated for 30 min prior to LPS-challenge measured after 24 hr by ELISA; assay type: functional; details: values are per cent of control
THP-1 [3] = assay: Anti-inflammatory activity in Homo sapiens (human) PMA-stimulated THP1 cells assessed as inhibition of LPS-induced IL6 production at 10 uM incubated for 30 min prior to LPS-challenge measured after 24 hr by ELISA; assay type: functional
THP-1 [4] = assay: Anti-inflammatory activity in Homo sapiens (human) PMA-stimulated THP1 cells assessed as inhibition of LPS-induced IL6 production incubated for 30 min prior to LPS-challenge measured after 24 hr by ELISA; assay type: functional, cell-based
[5] = Cytotoxicity against Homo sapiens (human) […] cells at 1 uM after 24 hr; assay type: cell-based
THP-1 [6] = assay: Anti-inflammatory activity in Homo sapiens (human) PMA-stimulated THP1 cells assessed as inhibition of LPS-induced TNFalpha production at 1 uM incubated for 30 min prior to LPS-challenge measured after 24 hr by ELISA; assay type: functional
THP-1 [7] = assay: Anti-inflammatory activity in Homo sapiens (human) PMA-stimulated THP1 cells assessed as inhibition of LPS-induced IL6 production at 1 uM incubated for 30 min prior to LPS-challenge measured after 24 hr by ELISA; assay type: functional

| IC50 (THP-1 [4]) | SMILES | Activity [1] | response, % of control at 10 µM (THP-1 [2]) | inhibition at 10 µM (THP-1 [3]) | Activity [5] | inhibition at 1 µM (THP-1 [6]) | inhibition at 1 µM (THP-1 [7]) |
| --- | --- | --- | --- | --- | --- | --- | --- |
| – | COc1cc(OC)c(C(=O)c2ccccc2)c(O)c1Br | 38% | 19% | 80% | – | – | – |
| – | COc1cc(OC)c(C(=O)c2ccccc2F)c(O)c1Br | 46% | 0% | 76% | – | – | – |
| 190 nM | COc1cc(OC)c(C(=O)c2ccc(F)cc2)c(O)c1Br | 19% | 0% | 63% | – | – | – |
| – | COc1cc(OC)c(C(=O)c2ccccc2C)c(O)c1Br | 40% | 0% | 70% | – | – | – |
| – | COc1cc(OC)c(C(=O)c2cccc(C)c2)c(O)c1Br | 32% | 4% | 76% | – | – | – |
| – | COc1ccc(C(=O)c2c(OC)cc(OC)c(Br)c2O)cc1 | 34% | 6% | 82% | – | – | – |
| – | COc1cc(OC)c(C(=O)c2cccc(Cl)c2)c(O)c1Br | 33% | 10% | 78% | – | – | – |
| – | C[C@@H]1C[C@H]2[C@@H]3CCC4=CC(=O)C=C[C@]4(C)[C@@]3(F)[C@@H](O)C[C@]2(C)[C@@]1(O)C(=O)CO [DEXAMETHASONE] | – | – | – | 0% | 72% | 94% |
